{
  "source": "paper PMC6934184",
  "about": "“Selective DNA-PKcs inhibition extends the therapeutic index of localized radiotherapy and chemotherapy” (The Journal of Clinical Investigation, 2019)",
  "target": "T1, PRKCB2 (PKC beta II) (Homo sapiens, UniProt P05771)",
  "T1 construct": "purchased Thermo Fisher Scientific (Life Technologies) SelectScreen",
  "T1 sequence (P05771 1-673 isoform P05771-2)": "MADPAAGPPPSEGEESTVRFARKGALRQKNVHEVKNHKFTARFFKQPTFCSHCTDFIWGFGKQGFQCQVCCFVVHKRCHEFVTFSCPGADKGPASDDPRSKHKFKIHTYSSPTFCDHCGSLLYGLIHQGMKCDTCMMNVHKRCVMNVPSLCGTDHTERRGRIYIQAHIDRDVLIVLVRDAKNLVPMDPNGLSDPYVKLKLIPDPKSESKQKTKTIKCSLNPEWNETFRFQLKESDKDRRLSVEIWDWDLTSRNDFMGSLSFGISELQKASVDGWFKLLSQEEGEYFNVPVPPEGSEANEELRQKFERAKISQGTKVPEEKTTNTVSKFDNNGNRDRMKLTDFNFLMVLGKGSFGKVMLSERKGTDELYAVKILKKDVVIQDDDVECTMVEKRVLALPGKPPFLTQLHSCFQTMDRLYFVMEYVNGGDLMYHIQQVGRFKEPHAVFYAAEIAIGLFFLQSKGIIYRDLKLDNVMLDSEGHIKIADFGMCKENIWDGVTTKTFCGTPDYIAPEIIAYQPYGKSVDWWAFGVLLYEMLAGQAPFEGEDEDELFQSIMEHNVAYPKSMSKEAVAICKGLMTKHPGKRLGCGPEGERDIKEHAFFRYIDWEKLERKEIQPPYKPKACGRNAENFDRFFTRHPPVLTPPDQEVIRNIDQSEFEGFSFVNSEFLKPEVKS",
  "assay": "SelectScreen Z'LYTE",
  "assay_type": "biochemical",
  "procedure,_shortened": "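SelectScreen broad panel; activity (Z'LYTE, Adapta) plus binding formats. ATP: Km app for CSF1R Z'LYTE; 10 for CAMK1 Adapta. Readout = % per kinase.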",
  "data": [
    {"smiles": "CN(C(=O)CN1CCOCC1)c1ccc2sc3c(-c4cccc5c(=O)cc(N6CC7CCC(C6)O7)oc45)cccc3c2c1", "note": "[NU5455]", "values": [
      {"measurement": "inhibition at 1 µM", "result": -9.6, "unit": "%"}
    ]}
  ]
}
